ChEMBL document CHEMBL1201862, “PubChem BioAssay data set” (2004)
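Method: 48-hour compound exposure of cells in 96-well plates, five concentrations, linear interpolation of endpoints. The concentration for 50% growth inhibition is given as GI50.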 Active and inactive are the calls of the source. Cut-off read from the data, not from the text of the source: active = GI50 up to about 1.1 µM and inactive = higher.

Experiments:
Test in all cases: inhibition of tumour cell growth, NCI panel, 48 h
[1] = test system: NCI-H226
[2] = test system: HCT-15
[3] = test system: NCI-H522
[4] = test system: RXF 393
[5] = test system: CAKI-1
[6] = test system: SK-MEL-5
[7] = test system: SNB-78
[8] = test system: MOLT-4
[9] = test system: UACC-62
[10] = test system: SK-OV-3
[11] = test system: SW-620
[12] = test system: RPMI-8226
[13] = test system: SF-295
[14] = test system: Malme-3M
[15] = test system: SF-268
[16] = test system: HOP-92
[17] = test system: OVCAR-3
[18] = test system: HOP-18
[19] = test system: OVCAR-8
[20] = test system: OVCAR-4
[21] = test system: HCT-116
[22] = test system: M14
[23] = test system: CCRF-CEM
[24] = test system: LOX IMVI
[25] = test system: SN12C
[26] = test system: HT-29
[27] = test system: DMS-273
[28] = test system: KM12
[29] = test system: U-251
[30] = test system: NCI-H460
[31] = test system: A549
[32] = test system: A498
[33] = test system: K562
[34] = test system: SF-539
[35] = test system: EKVX
[36] = test system: DMS-114
[37] = test system: SK-MEL-28
[38] = test system: HL-60
[39] = test system: NCI-H23
[40] = test system: IGROV-1
[41] = test system: KM-20L2
[42] = test system: UACC-257
[43] = test system: XF498
[44] = test system: UO-31
[45] = test system: OVCAR-5
[46] = test system: SR
[47] = test system: TK-10
[48] = test system: DLD-1
[49] = test system: M19-MEL
[50] = test system: HCC 2998
[51] = test system: SK-MEL-2
[52] = test system: 786-0
[53] = test system: ACHN
[54] = test system: LXFL 529
[55] = test system: SNB-75
[56] = test system: SNB-19
[57] = test system: COLO 205

## COc1ccc2c(c1)C(=O)Cc1ccccc1CC2
[1]
  GI50: > 100 µM (inactive)
[2]
  GI50: > 100 µM
[3]
  GI50: > 100 µM (inactive)
[4]
  GI50: > 100 µM (inactive)
[5]
  GI50: > 100 µM (inactive)
[6]
  GI50: > 100 µM (inactive)
[7]
  GI50: > 100 µM (inactive)
[8]
  GI50: > 100 µM (inactive)
[9]
  GI50: > 100 µM (inactive)
[10]
  GI50: > 100 µM (inactive)
[11]
  GI50: > 100 µM (inactive)
[12]
  GI50: > 100 µM (inactive)
[13]
  GI50: > 100 µM (inactive)
[14]
  GI50: > 100 µM (inactive)
[15]
  GI50: > 100 µM (inactive)
[16]
  GI50: > 100 µM (inactive)
[17]
  GI50: > 100 µM (inactive)
[18]
  GI50: > 100 µM (inactive)
[19]
  GI50: > 100 µM (inactive)
[20]
  GI50: > 100 µM (inactive)
[21]
  GI50: > 100 µM (inactive)
[22]
  GI50: > 100 µM (inactive)
[23]
  GI50: > 100 µM (inactive)
[24]
  GI50: > 100 µM (inactive)
[25]
  GI50: > 100 µM (inactive)
[26]
  GI50: > 100 µM (inactive)
[27]
  GI50: > 100 µM (inactive)
[28]
  GI50: > 100 µM (inactive)
[29]
  GI50: > 100 µM (inactive)
[30]
  GI50: > 100 µM (inactive)
[31]
  GI50: > 100 µM (inactive)
[32]
  GI50: > 100 µM (inactive)
[33]
  GI50: > 100 µM (inactive)
[34]
  GI50: > 100 µM (inactive)
[35]
  GI50: > 100 µM (inactive)
[36]
  GI50: > 100 µM (inactive)
[37]
  GI50: > 100 µM (inactive)
[38]
  GI50: > 100 µM (inactive)
[39]
  GI50: > 100 µM (inactive)
[40]
  GI50: > 100 µM (inactive)
[41]
  GI50: > 100 µM (inactive)
[42]
  GI50: > 100 µM (inactive)
[43]
  GI50: > 100 µM (inactive)
[44]
  GI50: > 100 µM (inactive)
[45]
  GI50: > 100 µM (inactive)
[46]
  GI50: > 100 µM (inactive)
[47]
  GI50: > 100 µM (inactive)
[48]
  GI50: > 100 µM (inactive)
[49]
  GI50: > 100 µM (inactive)
[50]
  GI50: > 100 µM (inactive)
[51]
  GI50: 81.5 µM (inactive)
[52]
  GI50: 72.3 µM (inactive)
[53]
  GI50: > 100 µM (inactive)
[54]
  GI50: > 100 µM (inactive)
[55]
  GI50: 27.7 µM (inactive)
[56]
  GI50: > 100 µM (inactive)
[57]
  GI50: > 100 µM (inactive)
